ChEMBL document CHEMBL3046161, “Synthesis of potential antitubercular and antimicrobial s-triazine-based scaffolds via Suzuki cross-coupling reaction” (2013)
Converted amounts (≈) assume the structure as drawn.

How the values were obtained:
Assay type in all cases: functional
[1] = tested on: Salmonella typhi; assay: Antibacterial activity against Salmonella enterica subsp. enterica serovar Typhi MTCC 733 assessed as growth inhibition at 3.12 to 50 ug/mL after 24 hr by agar disk diffusion method
[2] = tested on: Klebsiella pneumoniae; assay: Antibacterial activity against Klebsiella pneumoniae MTCC 109 assessed as growth inhibition at 3.12 to 50 ug/mL after 24 hr by agar disk diffusion method
[3] = tested on: Klebsiella pneumoniae; assay: Antibacterial activity against Klebsiella pneumoniae MTCC 109 assessed as growth inhibition after 24 hr by agar streak dilution method; conditions: MTCC 109, 24 h
[4] = tested on: Salmonella typhi; assay: Antibacterial activity against Salmonella enterica subsp. enterica serovar Typhi MTCC 733 assessed as growth inhibition after 24 hr by agar streak dilution method; conditions: MTCC 733, 24 h
[5] = tested on: Pseudomonas aeruginosa; assay: Antibacterial activity against Pseudomonas aeruginosa MTCC 741 assessed as growth inhibition after 24 hr by agar streak dilution method; conditions: MTCC 741, 24 h
[6] = tested on: Escherichia coli; assay: Antibacterial activity against Escherichia coli MTCC 739 assessed as growth inhibition after 24 hr by agar streak dilution method; conditions: MTCC 739, 24 h
[7] = tested on: Bacillus cereus; assay: Antibacterial activity against Bacillus cereus MTCC 430 assessed as growth inhibition after 24 hr by agar streak dilution method; conditions: MTCC 430, 24 h
[8] = tested on: Staphylococcus aureus; assay: Antibacterial activity against Staphylococcus aureus MTCC 96 assessed as growth inhibition after 24 hr by agar streak dilution method; conditions: MTCC 96, 24 h
[9] = tested on: Mycobacterium tuberculosis; assay: Antimycobacterial activity against Mycobacterium tuberculosis H37Rv assessed as growth inhibition at MIC after 12 to 28 days by Lowenstein and Jensen agar dilution method
[10] = tested on: Mycobacterium tuberculosis; assay: Antimycobacterial activity against Mycobacterium tuberculosis H37Rv assessed as growth inhibition after 12 to 28 days by Lowenstein and Jensen agar dilution method
[11] = tested on: Mycobacterium tuberculosis; assay: Antimycobacterial activity against Mycobacterium tuberculosis H37Rv assessed as growth inhibition measured within 10 days by BACTEC MGIT method; conditions: 240 h
[12] = tested on: Candida albicans; assay: Antifungal activity against Candida albicans MTCC 183 assessed as growth inhibition at 3.12 to 50 ug/mL after 24 hr by agar disk diffusion method
[13] = tested on: Aspergillus clavatus; assay: Antifungal activity against Aspergillus clavatus MTCC 1323 assessed as growth inhibition at 3.12 to 50 ug/mL after 24 hr by agar disk diffusion method
[14] = tested on: Aspergillus fumigatus; assay: Antifungal activity against Aspergillus fumigatus MTCC 343 assessed as growth inhibition at 3.12 to 50 ug/mL after 24 hr by agar disk diffusion method
[15] = tested on: Aspergillus niger; assay: Antifungal activity against Aspergillus niger MTCC 282 assessed as growth inhibition at 3.12 to 50 ug/mL after 24 hr by agar disk diffusion method
[16] = tested on: Candida albicans; assay: Antifungal activity against Candida albicans MTCC 183 assessed as growth inhibition after 48 hr by agar streak dilution method; conditions: MTCC 183, 48 h
[17] = tested on: Aspergillus clavatus; assay: Antifungal activity against Aspergillus clavatus MTCC 1323 assessed as growth inhibition after 48 hr by agar streak dilution method; conditions: MTCC 1323, 48 h
[18] = tested on: Aspergillus fumigatus; assay: Antifungal activity against Aspergillus fumigatus MTCC 343 assessed as growth inhibition after 48 hr by agar streak dilution method; conditions: MTCC 343, 48 h
[19] = tested on: Aspergillus niger; assay: Antifungal activity against Aspergillus niger MTCC 282 assessed as growth inhibition after 48 hr by agar streak dilution method; conditions: MTCC 282, 48 h
[20] = tested on: Shigella flexneri; assay: Antibacterial activity against Shigella flexneri MTCC 1457 assessed as growth inhibition at 3.12 to 50 ug/mL after 24 hr by agar disk diffusion method
[21] = tested on: Proteus vulgaris; assay: Antibacterial activity against Proteus vulgaris MTCC 1771 assessed as growth inhibition at 3.12 to 50 ug/mL after 24 hr by agar disk diffusion method
[22] = tested on: Pseudomonas aeruginosa; assay: Antibacterial activity against Pseudomonas aeruginosa MTCC 741 assessed as growth inhibition at 3.12 to 50 ug/mL after 24 hr by agar disk diffusion method
[23] = tested on: Escherichia coli; assay: Antibacterial activity against Escherichia coli MTCC 739 assessed as growth inhibition at 3.12 to 50 ug/mL after 24 hr by agar disk diffusion method
[24] = tested on: Bacillus cereus; assay: Antibacterial activity against Bacillus cereus MTCC 430 assessed as growth inhibition at 3.12 to 50 ug/mL after 24 hr by agar disk diffusion method
[25] = tested on: Staphylococcus aureus; assay: Antibacterial activity against Staphylococcus aureus MTCC 96 assessed as growth inhibition at 3.12 to 50 ug/mL after 24 hr by agar disk diffusion method
[26] = tested on: Shigella flexneri; assay: Antibacterial activity against Shigella flexneri MTCC 1457 assessed as growth inhibition after 24 hr by agar streak dilution method; conditions: MTCC 1457, 24 h
[27] = tested on: Proteus vulgaris; assay: Antibacterial activity against Proteus vulgaris MTCC 1771 assessed as growth inhibition after 24 hr by agar streak dilution method; conditions: MTCC 1771, 24 h

Structure (SMILES) | inhibition zone (IZ) [1] | inhibition zone (IZ) [2] | MIC [3] | MIC [4] | MIC [5] | MIC [6] | MIC [7] | MIC [8] | growth inhibition (GI) [9] | MIC [10] | MIC [11] | inhibition zone (IZ) [12] | inhibition zone (IZ) [13] | inhibition zone (IZ) [14] | inhibition zone (IZ) [15] | MIC [16] | MIC [17] | MIC [18] | MIC [19] | inhibition zone (IZ) [20] | also measured
CC1CC(C)CN(c2nc(-c3ccc(NCC(=O)Nc4ccc(I)cc4)cc3)nc(N3CC(C)CC(C)C3)n2)C1 (stereo not drawn) | 17 mm | 23 mm | 50 µg/mL (≈ 76.5 µM) | 50 µg/mL (≈ 76.5 µM) | 25 µg/mL (≈ 38.2 µM) | 50 µg/mL (≈ 76.5 µM) | 50 µg/mL (≈ 76.5 µM) | 50 µg/mL (≈ 76.5 µM) | 95% | 250 µg/mL (≈ 382 µM) | > 6.25 µg/mL | <10 mm | <10 mm | 16 mm | <10 mm | > 50 µg/mL | > 50 µg/mL | 50 µg/mL (≈ 76.5 µM) | 50 µg/mL (≈ 76.5 µM) | 20 mm | inhibition zone (IZ) [21]: 23 mm; inhibition zone (IZ) [22]: 24 mm; inhibition zone (IZ) [23]: <10 mm; inhibition zone (IZ) [24]: 16 mm; inhibition zone (IZ) [25]: 17 mm; MIC [26]: 50 µg/mL (≈ 76.5 µM); MIC [27]: 25 µg/mL (≈ 38.2 µM)
CC1CC(C)CN(c2nc(-c3ccc(NCC(=O)Nc4ccc([N+](=O)[O-])cc4)cc3)nc(N3CC(C)CC(C)C3)n2)C1 (stereo not drawn) | 15 mm | 12 mm | 50 µg/mL (≈ 87.3 µM) | 50 µg/mL (≈ 87.3 µM) | 50 µg/mL (≈ 87.3 µM) | 50 µg/mL (≈ 87.3 µM) | 50 µg/mL (≈ 87.3 µM) | 12.5 µg/mL (≈ 21.8 µM) | 94% | 100 µg/mL (≈ 175 µM) | > 6.25 µg/mL | 13 mm | 24 mm | 18 mm | 18 mm | 50 µg/mL (≈ 87.3 µM) | 50 µg/mL (≈ 87.3 µM) | 50 µg/mL (≈ 87.3 µM) | 50 µg/mL (≈ 87.3 µM) | 17 mm | inhibition zone (IZ) [21]: 13 mm; inhibition zone (IZ) [22]: 20 mm; inhibition zone (IZ) [23]: 13 mm; inhibition zone (IZ) [24]: 16 mm; inhibition zone (IZ) [25]: 20 mm; MIC [26]: 50 µg/mL (≈ 87.3 µM); MIC [27]: 50 µg/mL (≈ 87.3 µM)
CC1CC(C)CN(c2nc(-c3ccc(NCC(=O)Nc4ccc(C#N)cc4)cc3)nc(N3CC(C)CC(C)C3)n2)C1 (stereo not drawn) | 20 mm | 28 mm | 12.5 µg/mL (≈ 22.6 µM) | 50 µg/mL (≈ 90.5 µM) | 50 µg/mL (≈ 90.5 µM) | 25 µg/mL (≈ 45.2 µM) | 50 µg/mL (≈ 90.5 µM) | 12.5 µg/mL (≈ 22.6 µM) | 96% | 62.5 µg/mL (≈ 113 µM) | > 6.25 µg/mL | <10 mm | <10 mm | 11 mm | <10 mm | > 50 µg/mL | > 50 µg/mL | 50 µg/mL (≈ 90.5 µM) | 50 µg/mL (≈ 90.5 µM) | 15 mm | inhibition zone (IZ) [21]: 19 mm; inhibition zone (IZ) [22]: 21 mm; inhibition zone (IZ) [23]: 20 mm; inhibition zone (IZ) [24]: 19 mm; inhibition zone (IZ) [25]: 19 mm; MIC [26]: 50 µg/mL (≈ 90.5 µM); MIC [27]: 50 µg/mL (≈ 90.5 µM)
Cc1ccc(NC(=O)CNc2ccc(-c3nc(N4CC(C)CC(C)C4)nc(N4CC(C)CC(C)C4)n3)cc2)cc1 (stereo not drawn) | 18 mm | <10 mm | 50 µg/mL (≈ 92.3 µM) | 50 µg/mL (≈ 92.3 µM) | 50 µg/mL (≈ 92.3 µM) | 50 µg/mL (≈ 92.3 µM) | 50 µg/mL (≈ 92.3 µM) | 50 µg/mL (≈ 92.3 µM) | 95% | 250 µg/mL (≈ 461 µM) | > 6.25 µg/mL | 11 mm | <10 mm | <10 mm | <10 mm | 50 µg/mL (≈ 92.3 µM) | > 50 µg/mL | > 50 µg/mL | 50 µg/mL (≈ 92.3 µM) | 11 mm | inhibition zone (IZ) [21]: 16 mm; inhibition zone (IZ) [22]: 17 mm; inhibition zone (IZ) [23]: 13 mm; inhibition zone (IZ) [24]: 14 mm; inhibition zone (IZ) [25]: <10 mm; MIC [26]: 50 µg/mL (≈ 92.3 µM); MIC [27]: 50 µg/mL (≈ 92.3 µM)
